These results are taken from patent US20240166630A1, “INDOLE DERIVATIVES AS SEROTONERGIC AGENTS USEFUL FOR THE TREATMENT OF DISORDERS RELATED THERETO” (Mindset Pharma Inc., priority 2021, published 2024).

Data set [1] is described as follows: Liver microsomes stability with NADPH, rat.
Data set [2] concerns the target T1, human 5-HT2A (h5-HT2A) receptor (Homo sapiens, UniProt P28223).
T1 construct: expressed in transfected cells; kept under G418 and hygromycin B selection
In words: FLIPR assay, human 5-HT2A receptor under agonist mode. Format: cell-based. Here is the method: I. Assessment of the Activated Effect of Compounds of Formula I-B Targeting on Human 5-HT2A (h5-HT2A) Receptor Under Agonist Mode:
1. The cells were cultured in cell culture medium (DMEM containing 10% FBS, 1× penicillin-streptomycin 300 μg/ml G418 and 100 μg/ml hygromycin B) at 37° C., 5% (v/v) CO2.
2. One day before the assays, the cells were detached using TrypLE™ Express and count cells using cell counter.
3. 20000 cells/well were seeded in 30 μl/well culture medium to a 384-well cell plate and incubated the cells overnight at 37° C., 5% (v/v) CO2.
4. On the assay day, 2×dye solution was prepared following the manual of the FLIPR® Calcium 6 Assay Kit: i. The dye was diluted with assay buffer (20 mM HEPES in 1×HBSS, PH7.4); ii. probenecid was added to the final concentration of 5 mM; iii. Vortexed vigorously for 1-2 minutes.
5. Medium was removed from cell plate by flicking the cell plate on towel papers.
7. The cell plate was placed on plate shaker, the plate agitated at 600 rpm for 2 minutes. The plate was incubated at 37° C. for 2 hours followed by additional 15-minute incubation at 25° C.
8. 3×compound was prepared in assay buffer: a. Reference compounds were diluted to required concentration with DMSO. The compounds were added to a 384-well compound plate; b. Serial dilutions were performed; c. 10 mM test compounds were added to the compound plate, 3-fold serial dilutions were performed. […] 20 μl/well assay buffer was added to the compound plate; f.
9. The cell plate, compound plate and tips were placed into FLIPR, 10 μl of 3× compound was transferred to the cell plate per well with FLIPR.
i. The normalized fluorescence reading (RFU) was calculated as shown follow, while Fmax and Fmin stand for maximum and minimum of calcium signal during defined time window: RFU=Fmax−Fmin
ii. The percentage activation was calculated by using following equation: […]
iii. EC50 was calculated by fitting % activation against log of compound concentrations with Hill equation using Xlfit.

A short description of data set [3]: Liver microsomes stability with NADPH, human. On the procedure:
The objective of this study was to estimate in vitro metabolic stability of representative compounds of the application in pooled human and male mouse liver microsomes. The concentrations of parent compounds in reaction systems were evaluated by LC-MS/MS for estimating the stability in pooled human and male mouse liver microsomes. The in vitro intrinsic clearances of test compounds were determined as well.
A master solution in the “Incubation Plate” containing phosphate buffer, ultra-pure H2O, MgCl2 solution and liver microsomes was made according to Table 3. The mixture was pre-warmed at 37° C. water bath for 5 minutes.
40 μL of 10 mM NADPH solution was added to each well. The final concentration of NADPH was 1 mM. The negative control samples were prepared by replacing NADPH with 40 μL of ultra-pure H2O. Samples were prepared in duplicate. Negative controls were prepared in singlet.
The reaction was started with the addition of 4 μL of 200 μM test compounds or control compounds to each master solution to get the final concentration of 2 μM. This study was performed in duplicate.
Aliquots of 50 μL were taken from the reaction solution at 0, 15, 30, 45 and 60 minutes. The reaction solutions were stopped by the addition of 4 volumes of cold methanol with IS (100 nM alprazolam, 200 nM imipramine, 200 nM labetalol and 2 μM ketoprofen). Samples were centrifuged at 3,220 g for 40 minutes. Aliquot of 90 μL of the supernatant was mixed with 90 μL of ultra-pure H2O and then was used for LC-MS/MS analysis.
LC/MS analysis was performed for all samples from this study using a Shimadzu liquid chromatograph separation system equipped with degasser DGU-20A5R; solvent delivery unit LC-30AD; system controller SIL-30AC; column oven CTO-30A; CTC Analytics HTC PAL System; Mass spectrometric analysis was performed using an Triple Quad™ 5500 instrument.
All calculations were carried out using Microsoft Excel. Peak area ratios of test compound to internal standard (listed in the below table) were determined from extracted ion chromatograms.
All calculations were carried out using Microsoft Excel. Peak areas were determined from extracted ion chromatograms. The slope value, k, was determined by linear regression of the natural logarithm of the remaining percentage of the parent drug vs. incubation time curve.
The in vitro half-life (in vitro t1/2) was determined from the slope value:
Conversion of the in vitro t1/2 (min) into the in vitro intrinsic clearance (in vitro CLint, in μL/min/mg proteins) was done using the following equation (mean of duplicate determinations): […]

The nature of data set [4]: In vivo pharmacokinetics in male Sprague Dawley rats. Further details: species or system rat. The settings on record: 0.992 mg/kg s.c.; for AUC(0-t): read-out: AUC0-tlast. The text has this: Example 13 (I-B-1): In Vivo Assessment of the Pharmacokinetics in Mice and Rats
5. PK Analysis • i. Analysis software: Phoenix® WinNonlin® 8.2 (Pharsight, Certara, Mountainview, CA) • ii. Analysis methods: non-compartmental analysis, linear up/log down trapezoidal rule • iii. PK parameters: C0, t1/2, AUC0-tlast. AUC0-∞, CL, Vss, MRT, tmax(po), Cmax(po), F, as appropriate

For a further data set, the target named is human 5-HT2A (Homo sapiens, UniProt P28223). Description: Radioligand binding assay on human 5-HT2A receptor ([3H]-ketanserin). Here is the method: i. The assay buffer was prepared following the table below;
iii. Prepared (v/v) DMSO as follows: a. […] The plates were sealed and incubated at 4° C. for 3 hrs;
iv. Preparation of assay plates: a.
vi. The plates were sealed and incubated at 27° C. for 90 min.

Several values for one entry are separate records, joined by “and”; a condition that tells them apart may be missing. Equal entries are not always repeated. Where two headings read alike, the source gives them in different places.

Chain of human 5-HT2A (P28223 whole entry): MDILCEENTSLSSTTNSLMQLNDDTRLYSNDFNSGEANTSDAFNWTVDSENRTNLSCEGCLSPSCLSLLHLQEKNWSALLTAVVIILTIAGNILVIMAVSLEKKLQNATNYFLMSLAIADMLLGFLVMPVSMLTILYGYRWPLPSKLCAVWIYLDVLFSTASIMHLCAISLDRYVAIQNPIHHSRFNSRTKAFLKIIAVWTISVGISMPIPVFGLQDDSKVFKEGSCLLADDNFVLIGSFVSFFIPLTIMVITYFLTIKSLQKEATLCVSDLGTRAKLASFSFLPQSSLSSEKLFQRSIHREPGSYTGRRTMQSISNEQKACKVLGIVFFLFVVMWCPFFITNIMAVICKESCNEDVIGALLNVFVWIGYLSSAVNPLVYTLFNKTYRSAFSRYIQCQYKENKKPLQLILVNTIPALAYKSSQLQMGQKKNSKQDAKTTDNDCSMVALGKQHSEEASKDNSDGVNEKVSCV
T1 sequence (P28223 whole entry): as above

A word on the microsomal CLint: it is the capacity of the preparation to metabolise the compound, expressed as a volume cleared per time. Higher therefore signals rapid turnover. For orientation: EC50 means the concentration that produces a half-maximal response. A higher EC50 goes with a less potent agent. The Cmax is the highest concentration seen after dosing. The IC50 is the concentration needed to halve the response being measured. Higher therefore signals lower potency. With `[2H]C([2H])(c1c[nH]c2ccccc12)[C@H]1CCCN1C([2H])([2H])[2H]` [I-B-1, (R)-3-((1-(methyl-d3)pyrrolidin-2-yl)methyl-d2)-1H-indole], the “Remaining Percentage (%) after 60 min Rat” value in data set [1] (rat liver microsomes, with NADPH, 2 μM) was 32.40%. Moreover, the half-life at 2 μM in data set [1] (rat, microsomes) came out at 0.615 h; in data set [3] (human, microsomes), 3.66 h. For the same compound, the microsomal CLint at 2 μM in data set [1] (rat, microsomes) was 37.6 µL/min/mg; in data set [3] (human, microsomes) it was 6.32 µL/min/mg. In addition, the EC50 in data set [2] fell in the range of 0.1 to 1 µM. In data set [3] (human liver microsomes, with NADPH, 2 μM), the “Remaining Percentage (%) after 60 min Human” value is 82.74%. Also, the F was 133 ± 10.1% in data set [4] (Mean ± SD); 132% and 144% and 124% in data set [4] (individual animals). In addition, in data set [4] (individual animals), the AUC0-tlast was 0.137 µg·h/mL and 0.133 µg·h/mL. The AUC(0-inf) in data set [4] (individual animals) is 0.154 µg·h/mL and 0.133 µg·h/mL; in data set [4] (male, Sprague Dawley, rat, plasma, sc, 0.992 mg/kg, Mean ± SD, read-out: AUC0-inf), 0.143 ± 0.0108 µg·h/mL; in data set [4] (male, Sprague Dawley, rat, plasma, sc, 0.992 mg/kg, individual animals, read-out: AUC0-inf), 0.141 µg·h/mL. In addition, the “Apparent t1/2” value in data set [4] (individual animals) is 0.990 h and 26.6^a h and 1.18 h. Further, the Cmax is 0.14 µg/mL and 0.137 µg/mL and 0.0646 µg/mL in data set [4] (individual animals); 0.114 ± 0.0427 µg/mL in data set [4] (male, Sprague Dawley, rat, plasma, sc, 0.992 mg/kg, Mean ± SD, read-out: Cmax). The MRT0-inf in data set [4] (individual animals) was 1.07 h and 9.03 h and 1.40 h. Also, the tmax in data set [4] (individual animals) was 0.0833 h and 1.00 h; in data set [4] (male, Sprague Dawley, rat, plasma, sc, 0.992 mg/kg, Mean ± SD, read-out: tmax), 0.25 h. The AUC(0-t) in data set [4] (male, Sprague Dawley, rat, plasma, sc, 0.992 mg/kg, Mean ± SD) worked out at 0.136 ± 0.00391 µg·h/mL; in data set [4] (male, Sprague Dawley, rat, plasma, sc, 0.992 mg/kg, individual animals) it was 0.14 µg·h/mL. In addition, the MRT inf in data set [4] (male, Sprague Dawley, rat, plasma, sc, 0.992 mg/kg, Mean ± SD, read-out: MRT0-inf) worked out at 3.83 ± 4.5 h. Further, the half-life in data set [4] (male, Sprague Dawley, rat, plasma, sc, 0.992 mg/kg, mean (n = 2), outlier excluded, read-out: Apparent t1/2 (converted)) is 1.09 h. At human 5-HT2A, this compound showed an IC50 of less than 0.5 µM.
